Patent publication US11780826B2 (Amgen Inc., priority 2017, dated 2023)

Test system: Bovine cardiac myofibrils
Test: In vitro model of dose-dependent myofibril ATPase modulation (AC1.4, pyruvate kinase/lactate dehydrogenase-coupled ATPase assay at pCa25)
Assay type: biochemical
Details: concentration at which ATPase activity was 1.4-fold higher than the bottom of the dose curve, mean of a minimum of two independent tests
Summary of the method: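 Detergent-skinned bovine cardiac myofibrils (typically 0.25-1.0 mg/ml) in Ca-buffered (EGTA/CaCl2) PK/LDH-coupled ATPase assay: 12 mM K-PIPES pH 6.80, 2 mM MgCl2, 1 mM ATP, 1 mM DTT, 0.5 mM NADH, 1.5 mM PEP. Hydrolysis followed at 340 nm; dose response fit to 4-parameter equation; AC1.4 is mean of ≥2 tests.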

In the case of `CC[C@H](NC(=O)[C@H]1CCCN1C(=O)c1cccc(S(=O)(=O)N2CC(C#N)C2)c1)c1ccc(C(F)(F)F)cc1F` [Example 204, 1-(3-((3-cyano-1-azetidinyl)sulfonyl)benzoyl)-N-((1S)-1-(2-fluoro-4-(trifluoromethyl)phenyl)propyl)-D-prolinamide], the AC1.4 is reported as 0.4305 µM.

`CCc1ccnc(C(=O)N2[C@@H](C(=O)N[C@@H](c3cc(F)c(C(F)(F)F)cc3F)C3CC3)C[C@H]3C[C@H]32)c1` [Example 661, (1R,3R,5R)-N-((R)-cyclopropyl(2,5-difluoro-4-(trifluoromethyl)phenyl)methyl)-2-((4-ethyl-2-pyridinyl)carbonyl)-2-azabicyclo[3.1.0]hexane-3-carboxamide] was tested, and the AC1.4 was 4.1595 µM.

`N#CC1CN(S(=O)(=O)N2CCC[C@H](C(=O)N3CCC[C@H]3C(=O)NCc3cc(F)cc(F)c3)C2)C1` [Example 694, 1-(((3S)-1-((3-cyano-1-azetidinyl)sulfonyl)-3-piperidinyl)carbonyl)-N-(3,5-difluorobenzyl)-L-prolinamide] gave an AC1.4 of 5.48 µM.

In the case of `CS(=O)(=O)c1cncc(C(=O)N2CCCC[C@@H]2C(=O)N[C@@H](c2cc(F)c(Cl)cc2F)C2CC2)c1` [Example 292, (2R)-N-((R)-(4-chloro-2,5-difluorophenyl)(cyclopropyl)methyl)-1-((5-(methylsulfonyl)-3-pyridinyl)carbonyl)-2-piperidinecarboxamide], the AC1.4 is reported as 0.7577 µM.

In the case of `COC(=O)C1CC(S(=O)(=O)N2CCC[C@H](C(=O)N3CCC[C@@H]3C(=O)NCc3ccc(C(F)(F)F)cc3)C2)C1` (stereo partly drawn) [Example 518, methyl3-(((S)-3-((R)-2-((4-(trifluoromethyl)benzyl)carbamoyl)pyrrolidine-1-carbonyl)piperidin-1-yl)sulfonyl)cyclobutanecarboxylate], the AC1.4 is reported as 2.457 µM.

`Cc1ccc([C@H](NC(=O)[C@H]2C[C@H](F)CN2C(=O)c2cccc(S(C)(=O)=O)c2)C2CC2)cc1F` [Example 792, (4S)-N-((R)-cyclopropyl(3-fluoro-4-methyIphenyl)methyl)-4-fluoro-1-(3-(methylsulfonyl)benzoyl)-D-prolinamide] was tested, and the AC1.4 was 9.071 µM.

`Cc1ccccc1CNC(=O)[C@H]1CCCN1C(=O)[C@H]1CCCN(S(=O)(=O)N2CC(C#N)C2)C1` [Example 571, 1-(((3S)-1-((3-cyano-1-azetidinyl)sulfonyl)-3-piperidinyl)carbonyl)-N-(2-methylbenzyl)-D-prolinamide] gave an AC1.4 of 3.1845 µM.

`C[C@@H](NC(=O)[C@H]1CCCN1C(=O)[C@@H]1CN(S(=O)(=O)N2CC(C#N)C2)CCN1)c1ccc(Cl)cc1` [Example 511, N-((1R)-1-(4-chlorophenyl)ethyl)-1-(((2S)-4-((3-cyano-1-azetidinyl)sulfonyl)-2-piperazinyl)carbonyl)-D-prolinamide] showed an AC1.4 of 2.4195 µM.

With `CS(=O)(=O)c1cncc(C(=O)N2C[C@@H](F)C[C@@H]2C(=O)N[C@@H](c2cc(F)c(C(F)(F)F)cc2F)C2CC2)c1` [Example 430, (4S)-N-((R)-cyclopropyl(2,5-difluoro-4-(trifluoromethyl)phenyl)methyl)-4-fluoro-1-((5-(methylsulfonyl)-3-pyridinyl)carbonyl)-D-prolinamide] the AC1.4 was 1.474 µM.

Compound `N#CC1CN(S(=O)(=O)N2CCC[C@H](C(=O)N3CCC[C@@H]3C(=O)NCc3cc(F)ccc3F)C2)C1` [Example 394, 1-(((3S)-1-((3-cyano-1-azetidinyl)sulfonyl)-3-piperidinyl)carbonyl)-N-(2,5-difluorobenzyl)-D-prolinamide] has an AC1.4 of 1.3725 µM.

`CC(C)(C)[C@@H](NC(=O)[C@H]1CCCN1C(=O)[C@H]1CCCN(S(=O)(=O)N2CC(C#N)C2)C1)c1ccc(C(F)(F)F)cc1` [Example 740, 1-(((3S)-1-((3-cyano-1-azetidinyl)sulfonyl)-3-piperidinyl)carbonyl)-N-((1R)-2,2-dimethyl-1-(4-(trifluoromethyl)phenyl)propyl)-D-prolinamide] was tested, and the AC1.4 was 7.156 µM.

In the case of `O=C(NCc1ccc(C(F)(F)F)cc1)[C@H]1CCCN1C(=O)[C@H]1CCCN(S(=O)(=O)N2CC(C(F)(F)F)C2)C1` [Example 380, 1-(((3S)-1-((3-(trifluoromethyl)-1-azetidinyl)sulfonyl)-3-piperidinyl)carbonyl)-N-(4-(trifluoromethyl)benzyl)-D-prolinamide], the AC1.4 is reported as 1.257 µM.

`CC[C@@H](NC(=O)[C@H]1CCCN1C(=O)c1cccc(S(=O)(=O)N2CC(C#N)C2)c1)c1ccc(C(F)(F)F)cc1` [Example 3, 1-(3-((3-cyano-1-azetidinyl)sulfonyl)benzoyl)-N-((1R)-1-(4-(trifluoromethyl)phenyl)propyl)-D-prolinamide] showed an AC1.4 of 0.01635 µM.

`CS(=O)(=O)c1cccc(C(=O)N2C=CC[C@@H]2C(=O)N[C@@H](c2ccc(C(F)(F)F)cc2F)C2CC2)c1` [Example 377, (2R)—N—((R)-cyclopropyl(2-fluoro-4-(trifluoromethyl)phenyl)methyl)-1-(3-(methylsulfonyl)benzoyl)-2,3-dihydro-1H-pyrrole-2-carboxamide] was tested, and the AC1.4 was 1.216 µM.

For `CC[C@@H](NC(=O)[C@H]1CCCN1C(=O)c1cccc(S(=O)(=O)N2CC(C#N)C2)c1)c1cc(F)cc(F)c1` [Example 124, 1-(3-((3-cyano-1-azetidinyl)sulfonyl)benzoyl)-N-((1R)-1-(3,5-difluorophenyl)propyl)-D-prolinamide], the AC1.4 was 0.1998 µM.

Work on `O=C(NCc1ccc(C(F)(F)F)cc1)[C@H]1CCCN1C(=O)[C@H]1CCCN(S(=O)(=O)N2CCC(F)(F)C2)C1` [Example 773, 1-(((3S)-1-((3,3-difluoro-1-pyrrolidinyl)sulfonyl)-3-piperidinyl)carbonyl)-N-(4-(trifluoromethyl)benzyl)-D-prolinamide] yielded an AC1.4 of 8.21 µM.

For `Cc1cc(C(=O)N2[C@@H](C(=O)N[C@@H](c3ccc(C(F)(F)F)cc3F)C3CC3)C[C@H]3C[C@H]32)c(NC2CC2)cn1` [Example 458, (1R,3R,5R)-2-((5-(cyclopropylamino)-2-methyl-4-pyridinyl)carbonyl)-N-((R)-cyclopropyl(2-fluoro-4-(trifluoromethyl)phenyl)methyl)-2-azabicyclo[3.1.0]hexane-3-carboxamide], the AC1.4 was 1.5845 µM.

Work on `CS(=O)(=O)c1ccnc(C(=O)N2CCC[C@@H]2C(=O)N[C@@H](c2ccc(C(F)(F)F)cc2F)C2CC2)c1` [Example 526, N-((R)-cyclopropyl(2-fluoro-4-(trifluoromethyl)phenyl)methyl)-1-((4-(methylsulfonyl)-2-pyridinyl)carbonyl)-D-prolinamide] yielded an AC1.4 of 2.5923 µM.

For `N#CC1CN(S(=O)(=O)N2CCC[C@H](C(=O)N3CCC[C@@H]3C(=O)NCc3ccc(F)cc3Cl)C2)C1` [Example 284, N-(2-chloro-4-fluorobenzyl)-1-(((3S)-1-((3-cyano-1-azetidinyl)sulfonyl)-3-piperidinyl)carbonyl)-D-prolinamide], the AC1.4 was 0.7331 µM.

For `CS(=O)(=O)c1cccc(C(=O)N2[C@@H](C(=O)N[C@@H](c3cc(F)c(C#N)cc3F)C3CC3)C[C@H]3C[C@H]32)c1` [Example 570, (1R,3R,5R)-N-((R)-(4-cyano-2,5-difluorophenyl)(cyclopropyl)methyl)-2-(3-(methylsulfonyl)benzoyl)-2-azabicyclo[3.1.0]hexane-3-carboxamide], the AC1.4 was 3.1825 µM.

In the case of `CS(=O)(=O)c1ccc(C(=O)N2CCC[C@@H]2C(=O)N[C@@H](c2cc(F)c(Cl)cc2F)C2CC2)cn1` [Example 215, N-((R)-(4-chloro-2,5-difluorophenyl)(cyclopropyl)methyl)-1-((6-(methylsulfonyl)-3-pyridinyl)carbonyl)-D-prolinamide], the AC1.4 is reported as 0.4666 µM.

`N#CC1CN(S(=O)(=O)N2CCC[C@H](C(=O)N3CCC[C@@H]3C(=O)N[C@H](c3cc(F)c(Cl)cc3F)C3CNC3)C2)C1` [Example 47, N-((S)-3-azetidinyl(4-chloro-2,5-difluorophenyl)methyl)-1-(((3S)-1-((3-cyano-1-azetidinyl)sulfonyl)-3-piperidinyl)carbonyl)-D-prolinamide] gave an AC1.4 of 0.0527 µM.

`N#CC1CN(S(=O)(=O)N2CCC[C@H](C(=O)N3CCC[C@@H]3C(=O)N[C@@H](c3ccc(C(F)(F)F)cc3)C3CC3)C2)C1` [Example 11, 1-(((3S)-1-((3-cyano-1-azetidinyl)sulfonyl)-3-piperidinyl)carbonyl)-N-((R)-cyclopropyl(4-(trifluoromethyl)phenyl)methyl)-D-prolinamide] showed an AC1.4 of 0.0215 µM.

For `CS(=O)(=O)c1cccc(C(=O)N2CCOC[C@@H]2C(=O)N[C@@H](c2cc(F)c(Cl)cc2F)C2CC2)c1` [Example 328, (3R)-N-((R)-(4-chloro-2,5-difluorophenyl)(cyclopropyl)methyl)-4-(3-(methylsulfonyl)benzoyl)-3-morpholinecarboxamide], the AC1.4 was 0.8776 µM.

In the case of `O=C(O[C@@H]1C[C@H](C(=O)N[C@@H](c2cc(F)c(Cl)cc2F)C2COC2)N(C(=O)c2ccnc(C(F)(F)F)c2)C1)c1ccnc(C(F)(F)F)c1` [Example 493, (3R,5R)-5-(((R)-(4-chloro-2,5-difluorophenyl)(3-oxetanyl)methyl)carbamoyl)-1-((2-(trifluoromethyl)-4-pyridinyl)carbonyl)-3-pyrrolidinyl2-(trifluoromethyl)-4-pyridinecarboxylate], the AC1.4 is reported as 2.271 µM.

In the case of `N#CC1CN(S(=O)(=O)c2cccc(C(=O)N3CCC[C@@H]3C(=O)NCc3ccc(CF)cc3)c2)C1` [Example 157, 1-((3-((3-cyano-1-azetidinyl)sulfonyl)phenyl)carbonyl)-N-(4-(fluoromethyl)benzyl)-D-prolinamide], the AC1.4 is reported as 0.2727 µM.

Compound `Cc1cc(C(=O)N2[C@@H](C(=O)N[C@@H](c3cc(F)c(C(F)(F)F)cc3F)C3CC3)C[C@H]3C[C@H]32)c(C(C)O)cn1` (stereo partly drawn) [Example 822, (1R,3R,5R)-N-((R)-cyclopropyl(2,5-difluoro-4-(trifluoromethyl)phenyl)methyl)-2-(5-(l-hydroxyethyl)-2-methylisonicotinoyl)-2-azabicyclo[3.1.0]hexane-3-carboxamide] has an AC1.4 of 5.894 µM.
